Tests used:
VIOTR [1] = assay: Post-emergence herbicidal action against VIOTR; format: in vivo, Viola tricolor
In short: (§1)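 Spray, one-leaf stage: WP or EC compound in water, 600–800 l/ha, 0.2% wetting agent. Plants held about 3 weeks in the greenhouse, then visually rated in percent of kill compared with untreated controls.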

VERPE [2] = assay: Post-emergence herbicidal action against VERPE; format: in vivo, Veronica persica; details: 20 g/ha
In short: as §1

MATIN [3] = assay: Post-emergence herbicidal action against MATIN; format: in vivo, Matricaria inodora
In short: as §1

SETVI [4] = assay: Pre-emergence herbicidal action against SETVI; format: in vivo, Setaria viridis
In short: (§2)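 Pre-emergence soil-surface spray of formulated compound (WP or EC; 600 to 800 l/ha; 0.2% wetting agent) over seeds sown in sandy loam. After 3 weeks under greenhouse conditions, damage is estimated visually in percent against untreated plants.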

POLCO [5] = assay: Post-emergence herbicidal action against POLCO; format: in vivo, Polygonum convolvulus; details: dosage 20 g/ha
In short: as §1

ECHCG [6] = assay: Post-emergence herbicidal action against ECHCG; format: in vivo, Echinochloa crus-galli
In short: as §1

ALOMY [7] = assay: Post-emergence herbicidal action against ALOMY; format: in vivo, Alopecurus myosuroides; details: dosage 20 g/ha, visual assessment about 3 weeks after treatment vs untreated controls
In short: as §1

SETVI [8] = assay: Post-emergence herbicidal action against SETVI; format: in vivo, Setaria viridis
In short: as §1

HORMU [9] = assay: Pre-emergence herbicidal action against HORMU; format: in vivo, Hordeum murinum; details: Hordeum murinum, 504 h; 80 g/ha, pre-emergence
In short: as §2

DIGSA [10] = assay: Post-emergence herbicidal action against DIGSA; format: in vivo, Digitaria sanguinalis
In short: as §1

LOLRI [11] = assay: Pre-emergence herbicidal action against LOLRI; format: in vivo, Lolium rigidum; details: Lolium rigidum, 504 h, 80 g/ha
In short: as §2

ABUTH [12] = assay: Pre-emergence herbicidal action against ABUTH; format: in vivo, Abutilon theophrasti
In short: as §2

AVEFA [13] = assay: Pre-emergence herbicidal action against AVEFA; format: in vivo, Avena fatua; details: Avena fatua, 504 h; 80 g/ha, pre-emergence
In short: as §2

ECHCG [14] = assay: Pre-emergence herbicidal action against ECHCG; format: in vivo, Echinochloa crus-galli
In short: as §2

VERPE [15] = assay: Pre-emergence herbicidal action against VERPE; format: in vivo, Veronica persica; details: dosage 80 g/ha
In short: as §2

ABUTH [16] = assay: Post-emergence herbicidal action against ABUTH; format: in vivo, Abutilon theophrasti; details: visual assessment about 3 weeks after treatment vs untreated controls
In short: as §1

STEME [17] = assay: Post-emergence herbicidal action against STEME; format: in vivo, Stellaria media
In short: as §1

LOLRI [18] = assay: Post-emergence herbicidal action against LOLRI; format: in vivo, Lolium rigidum; details: dosage 20 g/ha
In short: as §1

MATIN [19] = assay: Pre-emergence herbicidal action against MATIN; format: in vivo, Matricaria inodora
In short: as §2

VIOTR [20] = assay: Pre-emergence herbicidal action against VIOTR; format: in vivo, Viola tricolor
In short: as §2

AMARE [21] = assay: Pre-emergence herbicidal action against AMARE; format: in vivo, Amaranthus retroflexus
In short: as §2

STEME [22] = assay: Pre-emergence herbicidal action against STEME; format: in vivo, Stellaria media
In short: as §2

AMARE [23] = assay: Post-emergence herbicidal action against AMARE; format: in vivo, Amaranthus retroflexus; details: 20 g/ha, visual assessment about 3 weeks after treatment, 100% = plants have died, 0% = like control plants
In short: as §1

PHBPU = assay: Post-emergence herbicidal action against PHBPU; format: in vivo, Pharbitis purpurea; details: dosage 20 g/ha
In short: as §1

POLCO [24] = assay: Pre-emergence herbicidal action against POLCO; format: in vivo, Polygonum convolvulus; details: Fallopia convolvulus, 504 h, dosage 80 g/ha
In short: as §2

ALOMY [25] = assay: Pre-emergence herbicidal action against ALOMY; format: in vivo, Alopecurus myosuroides; details: 80 g/ha, pre-emergence, scored visually after 3 weeks vs untreated controls (100% = plants have died, 0% = like control plants)
In short: as §2

DIGSA [26] = assay: Pre-emergence herbicidal action against DIGSA; format: in vivo, Digitaria sanguinalis
In short: as §2

AVEFA [27] = assay: Post-emergence herbicidal action against AVEFA; format: in vivo, Avena fatua; details: 20 g/ha, visual assessment about 3 weeks after treatment, 100% = plants have died, 0% = like control plants
In short: as §1

HORMU [28] = assay: Post-emergence herbicidal action against HORMU; format: in vivo, Hordeum murinum; details: dosage 20 g/ha
In short: as §1

[29] = Tripleurospermum inodorum, 504 h, dosage 20 g/ha
[30] = Setaria viridis, 504 h, dosage 20 g/ha
[31] = 80 g/ha, scored visually after 3 weeks vs untreated controls (100% = plants have died, 0% = like control plants)

Structure (SMILES): CCNC(=O)c1c(C(F)(F)F)ccc(C(=O)Nc2nnnn2C)c1C [Example 1-26]
- pest or weed control at 5 g/ha (VIOTR [1]; Viola tricolor, 504 h, 5 g/ha): 100%
- pest or weed control at 20 g/ha (VIOTR [1]; Viola tricolor, 504 h, 20 g/ha): 100%
- pest or weed control at 20 g/ha (VERPE [2]; Veronica persica, 504 h): 80%
- pest or weed control at 5 g/ha (MATIN [3]; Tripleurospermum inodorum, 504 h, dosage 5 g/ha): 90%
- pest or weed control at 20 g/ha (MATIN [3]; [29]): 90%
- pest or weed control at 20 g/ha (SETVI [4]; [30]): 80%
- pest or weed control at 80 g/ha (SETVI [4]; Setaria viridis, 504 h, dosage 80 g/ha): 100%
- pest or weed control at 20 g/ha (POLCO [5]; Fallopia convolvulus, 504 h): 90%
- pest or weed control at 20 g/ha (ECHCG [6]; Echinochloa crus-galli, 504 h, dosage 20 g/ha): 80%
- pest or weed control at 20 g/ha (ALOMY [7]; Alopecurus myosuroides, 504 h): 90%
- pest or weed control at 5 g/ha (SETVI [8]; Setaria viridis, 504 h, dosage 5 g/ha): 100%
- pest or weed control at 20 g/ha (SETVI [8]; [30]): 100%
- pest or weed control at 80 g/ha (HORMU [9]): 80%
- pest or weed control at 5 g/ha (DIGSA [10]; Digitaria sanguinalis, 504 h, 5 g/ha): 90%
- pest or weed control at 20 g/ha (DIGSA [10]; Digitaria sanguinalis, 504 h, 20 g/ha): 100%
- pest or weed control at 80 g/ha (LOLRI [11]): 80%
- pest or weed control at 80 g/ha (ABUTH [12]; Abutilon theophrasti, 504 h, 80 g/ha, scored visually after 3 weeks vs untreated controls (100% = plants have died, 0% = like control plants)): 100%
- pest or weed control at 20 g/ha (ABUTH [12]; Abutilon theophrasti, 504 h, dosage 20 g/ha, scored visually after 3 weeks vs untreated controls, 100% = plants have died, 0% = like control plants, read-out: Pre-emergence action against ABUTH (herbicidal activity in percent)): 100%
- pest or weed control at 80 g/ha (AVEFA [13]): 100%
- pest or weed control at 20 g/ha (ECHCG [14]; Echinochloa crus-galli, 504 h, 20 g/ha): 80%
- pest or weed control at 80 g/ha (ECHCG [14]; Echinochloa crus-galli, 504 h, 80 g/ha): 100%
- pest or weed control at 80 g/ha (VERPE [15]; Veronica persica, 504 h): 80%
- pest or weed control at 5 g/ha (ABUTH [16]; Abutilon theophrasti, 504 h, dosage 5 g/ha): 90%
- pest or weed control at 20 g/ha (ABUTH [16]; Abutilon theophrasti, 504 h, dosage 20 g/ha): 100%
- pest or weed control at 20 g/ha (STEME [17]; Stellaria media, 504 h, 20 g/ha): 90%
- pest or weed control at 5 g/ha (STEME [17]; Stellaria media, 504 h, dosage 5 g/ha): 90%
- pest or weed control at 20 g/ha (LOLRI [18]; Lolium rigidum, 504 h): 80%
- pest or weed control at 20 g/ha (MATIN [19]; [29]): 100%
- pest or weed control at 80 g/ha (MATIN [19]; Tripleurospermum inodorum, 504 h, dosage 80 g/ha): 100%
- pest or weed control at 20 g/ha (VIOTR [20]; Viola tricolor, 504 h, dosage 20 g/ha): 90%
- pest or weed control at 80 g/ha (VIOTR [20]; Viola tricolor, 504 h, dosage 80 g/ha): 100%
- pest or weed control at 20 g/ha (AMARE [21]; Amaranthus retroflexus, 504 h, 20 g/ha, scored visually after 3 weeks vs untreated controls, 100% = plants have died, 0% = like control plants): 100%
- pest or weed control at 80 g/ha (AMARE [21]; Amaranthus retroflexus, 504 h, 80 g/ha, scored visually after 3 weeks vs untreated controls, 100% = plants have died, 0% = like control plants): 100%
- pest or weed control at 20 g/ha (STEME [22]; Stellaria media, 504 h, dosage 20 g/ha): 100%
- pest or weed control at 80 g/ha (STEME [22]; Stellaria media, 504 h, dosage 80 g/ha): 100%
- pest or weed control at 20 g/ha (AMARE [23]; Amaranthus retroflexus, 504 h): 100%
- pest or weed control at 20 g/ha (PHBPU; Ipomoea purpurea, 504 h): 80%
- pest or weed control at 80 g/ha (POLCO [24]): 90%
- pest or weed control at 80 g/ha (ALOMY [25]; Alopecurus myosuroides, 504 h): 100%
- pest or weed control at 20 g/ha (DIGSA [26]; Digitaria sanguinalis, 504 h, dosage 20 g/ha): 100%
- pest or weed control at 80 g/ha (DIGSA [26]; Digitaria sanguinalis, 504 h, dosage 80 g/ha): 100%

Structure (SMILES): CNC(=O)c1c(C(F)F)ccc(C(=O)Nc2nnco2)c1Cl [Example 5-122]
- Post-emergence action against VIOTR in % (VIOTR [1]; 5 g/ha): 90%
- Post-emergence action against VIOTR in % (VIOTR [1]; 20 g/ha): 90%
- Post-emergence action against VERPE in % (VERPE [2]): 80%
- Post-emergence action against MATIN in % (MATIN [3]; dosage 5 g/ha): 80%
- Post-emergence action against MATIN in % (MATIN [3]; dosage 20 g/ha): 80%
- Pre-emergence action against SETVI in % (SETVI [4]; dosage 80 g/ha): 100%
- Post-emergence action against POLCO in % (POLCO [5]): 80%
- Post-emergence action against ECHCG in % (ECHCG [6]; dosage 5 g/ha): 90%
- Post-emergence action against ECHCG in % (ECHCG [6]; dosage 20 g/ha): 90%
- Post-emergence action against ALOMY in % (ALOMY [7]): 80%
- Post-emergence action at 20 g/ha against AVEFA in % (AVEFA [27]): 80%
- Post-emergence action against SETVI in % (SETVI [8]; dosage 5 g/ha): 80%
- Post-emergence action against SETVI in % (SETVI [8]; dosage 20 g/ha): 90%
- Post-emergence action against DIGSA in % (DIGSA [10]; 5 g/ha): 90%
- Post-emergence action against DIGSA (DIGSA [10]; 20 g/ha): 90%
- Pre-emergence action against ABUTH (herbicidal activity) (ABUTH [12]; [31]): 100%
- Pre-emergence action against ABUTH (herbicidal activity in percent) (ABUTH [12]; dosage 20 g/ha, scored visually after 3 weeks vs untreated controls, 100% = plants have died, 0% = like control plants): 90%
- Pre-emergence action against ECHCG in % (ECHCG [14]; 20 g/ha): 80%
- Pre-emergence action against ECHCG in % (ECHCG [14]; 80 g/ha): 100%
- Pre-emergence action against VERPE in % (VERPE [15]): 100%
- Post-emergence action against ABUTH in % (ABUTH [16]; dosage 5 g/ha): 80%
- Post-emergence action against ABUTH in % (ABUTH [16]; dosage 20 g/ha): 90%
- Post-emergence action against STEME in % (STEME [17]; 20 g/ha): 100%
- Post-emergence action against STEME in % (STEME [17]; dosage 5 g/ha): 90%
- Post-emergence action against LOLRI in % (LOLRI [18]): 80%
- Post-emergence action against HORMU in % (HORMU [28]): 80%
- Pre-emergence action against MATIN in % (MATIN [19]; dosage 80 g/ha): 90%
- Pre-emergence action against VIOTR in % (VIOTR [20]; dosage 20 g/ha): 80%
- Pre-emergence action against VIOTR in % (VIOTR [20]; dosage 80 g/ha): 100%
- Pre-emergence action against AMARE in % (AMARE [21]; 20 g/ha, scored visually after 3 weeks vs untreated controls, 100% = plants have died, 0% = like control plants): 80%
- Pre-emergence action against AMARE in % (AMARE [21]; [31]): 100%
- Pre-emergence action against STEME in % (STEME [22]; dosage 20 g/ha): 90%
- Pre-emergence action against STEME in % (STEME [22]; dosage 80 g/ha): 90%
- Post-emergence action at 20 g/ha against AMARE in % (AMARE [23]): 90%
- Post-emergence action against PHBPU in % (PHBPU): 90%
- Pre-emergence action against ALOMY (herbicidal activity) (ALOMY [25]): 80%
- Pre-emergence action against DIGSA in % (DIGSA [26]; dosage 20 g/ha): 100%
- Pre-emergence action against DIGSA in % (DIGSA [26]; dosage 80 g/ha): 100%

Reference: patent US12655116B2, “Substituted isophthalic acid diamides” (Bayer Aktiengesellschaft, priority 2020, dated 2026)
